# From patent US8685720B2, “Engineered cellular pathways for programmed autoregulation of differentiation” (The Trustees of Princeton University, priority 2006, dated 2014)
# “Also recorded” adds a separate entry of the source.
# System: mammalian version of LuxR in 293FT cells
# Assay: 30C6HSL detection by mammalian receiver cells expressing chimeric LuxR-activator
# Format: cell-based
# Conditions: P65-LuxR fusion, synthetic lux promoter, exogenous 30C6HSL
# Excerpt: FIG. 2: (a) 30C6HSL synthesis by mammalian 293FT cells. Supernatant from the cells' growth media was collected and filter sterilized. Histograms show the fluorescence intensities of bacterial cells sensitive to 30C6HSL grown in the filtered supernatant, expressing green fluorescent protein due to 30C6HSL from the mammalian cells. (b) 30C6HSL detection by mammalian receiver cells. […] (c) Controlled stem cell differentiation with genetically inducible systems. Three different lentiviral genetic constructs were built, enabling exogenous chemical induction into myoblasts, adipocytes, or maintenance of stem cell properties. […] In addition, the marker protein for myoblasts, dystrophin, was expressed from these cells (data not shown). […] In a separate experiment, induced expression of Nanog supplanted the need for a growth factor usually required to maintain the overall character of mES cells.
# The 30C6HSL detection pathway consists of a signal transducer that binds 30C6HSL and activates transcription of genes controlled by a synthetic lux promoter. The 30C6HSL signal transducer is a chimeric LuxR-activator protein created by the fusion of a P65 mammalian activation domain to a codon optimized mammalian version of a bacterial LuxR.
structure (smiles),measurement,value
CCCC(=O)CC(=O)N[C@H]1CCOC1=O [30C6HSL],response (EGFP expression) to the addition of 30C6HSL,strong response; also recorded: express EGFP only upon induction with exogenous 30C6HSL
